Tests used:
Design in all cases: scale not given here
AMBEL Ragweed, Common [1] = assay: Postemergence herbicidal evaluation, AMBEL; assay type: in vivo, Ambrosia artemisifolia, L.; details: postemergence spray, rated about two-three weeks after treatment
Procedure, shortened: (§1)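 Ratings from greenhouse plants scored about two to three weeks after a foliar spray; data from multiple tests averaged. Seedlings about two weeks old received roughly 0.006–0.400 kg/ha active compound in 80/20 acetone/water with 1.0% methylated seed oil.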

[2] = tested on: CHEAL Lambsquarters, Common; assay: Postemergence herbicidal evaluation, CHEAL; assay type: in vivo, Chenopodium album, L.; details: postemergence spray, rated about two-three weeks after treatment
Procedure, shortened: as §1

[3] = tested on: TRZAWR Wheat, Winter, cv Riband; assay: Postemergence herbicidal evaluation, TRZAWR; assay type: in vivo, Triticum aestivum; details: postemergence spray, rated about two-three weeks after treatment
Procedure, shortened: as §1

ABUTH Velvetleaf [4] = assay: Preemergence herbicidal evaluation, ABUTH; assay type: in vivo, Abutilon theophrasti, Medic.; details: preemergence
Procedure, shortened: (§2)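 Preemergence soil spray: aqueous acetone, ~0.013–0.800 kg/ha, applied right after sowing (seed/potting-soil mix over ~1 in soil). Greenhouse, routine watering. Scored 4–5 wk post-treatment on a rating scale.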

GALAP Galium [5] = assay: Preemergence herbicidal evaluation, GALAP; assay type: in vivo, Galium aparine; details: preemergence
Procedure, shortened: as §2

AMBEL Ragweed, Common [6] = assay: Preemergence herbicidal evaluation, AMBEL; assay type: in vivo, Ambrosia artemisifolia, L.; details: preemergence
Procedure, shortened: as §2

ZEAMX Corn, Field [7] = assay: Postemergence herbicidal evaluation, ZEAMX; assay type: in vivo, Zea mays, L. (Sammel-Bezeichnung); details: postemergence spray, rated about two-three weeks after treatment
Procedure, shortened: as §1

ORYSAT Rice, Tebonnet [8] = assay: Postemergence herbicidal evaluation, ORYSAT; assay type: in vivo, Oryza sativa, (L.); details: postemergence spray, rated about two-three weeks after treatment
Procedure, shortened: as §1

GLXMAW Soybean, Williams [9] = assay: Preemergence herbicidal evaluation, GLXMAW; assay type: in vivo, Glycine max, (L.) Merr. cv Williams; details: preemergence
Procedure, shortened: as §2

[10] = tested on: CHEAL Lambsquarters, Common; assay: Preemergence herbicidal evaluation, CHEAL; assay type: in vivo, Chenopodium album, L.; details: preemergence
Procedure, shortened: as §2

SETVI Foxtail, Green [11] = assay: Postemergence herbicidal evaluation, SETVI; assay type: in vivo, Setaria viridis, (L.) Beau; details: postemergence spray, rated about two-three weeks after treatment
Procedure, shortened: as §1

ZEAMX Corn, Field [12] = assay: Preemergence herbicidal evaluation, ZEAMX; assay type: in vivo, Zea mays, L. (Sammel-Bezeichnung); details: preemergence
Procedure, shortened: as §2

CASOB Sicklepod [13] = assay: Preemergence herbicidal evaluation, CASOB; assay type: in vivo, Cassia obtusifolia, L.; details: preemergence
Procedure, shortened: as §2

ECHOG Barnyardgrass [14] = assay: Postemergence herbicidal evaluation, ECHOG; assay type: in vivo, Echinochloa crus-galli, (L.) Beau; details: postemergence spray, rated about two-three weeks after treatment
Procedure, shortened: as §1

CASOB Sicklepod [15] = assay: Postemergence herbicidal evaluation, CASOB; assay type: in vivo, Cassia obtusifolia, L.; details: postemergence spray, rated about two-three weeks after treatment
Procedure, shortened: as §1

ORYSAT Rice, Tebonnet [16] = assay: Preemergence herbicidal evaluation, ORYSAT; assay type: in vivo, Oryza sativa, (L.); details: preemergence
Procedure, shortened: as §2

SETVI Foxtail, Green [17] = assay: Preemergence herbicidal evaluation, SETVI; assay type: in vivo, Setaria viridis, (L.) Beau; details: preemergence
Procedure, shortened: as §2

[18] = tested on: IPOHE Morningglory, Ivyleaf; assay: Postemergence herbicidal evaluation, IPOHE; assay type: in vivo, Ipomoea hederacea, (L.) Jacq.; details: postemergence spray, rated about two-three weeks after treatment
Procedure, shortened: as §1

[19] = tested on: IPOHE Morningglory, Ivyleaf; assay: Preemergence herbicidal evaluation, IPOHE; assay type: in vivo, Ipomoea hederacea, (L.) Jacq.; details: preemergence
Procedure, shortened: as §2

ECHOG Barnyardgrass [20] = assay: Preemergence herbicidal evaluation, ECHOG; assay type: in vivo, Echinochloa crus-galli, (L.) Beau; details: preemergence
Procedure, shortened: as §2

GLXMAW Soybean, Williams [21] = assay: Postemergence herbicidal evaluation, GLXMAW; assay type: in vivo, Glycine max, (L.) Merr. cv Williams; details: postemergence spray, rated about two-three weeks after treatment
Procedure, shortened: as §1

GALAP Galium [22] = assay: Postemergence herbicidal evaluation, GALAP; assay type: in vivo, Galium aparine; details: postemergence spray, rated about two-three weeks after treatment
Procedure, shortened: as §1

[23] = tested on: TRZAWR Wheat, Winter, cv Riband; assay: Preemergence herbicidal evaluation, TRZAWR; assay type: in vivo, Triticum aestivum; details: preemergence
Procedure, shortened: as §2

ABUTH Velvetleaf [24] = assay: Postemergence herbicidal evaluation, ABUTH; assay type: in vivo, Abutilon theophrasti, Medic.; details: postemergence spray, rated about two-three weeks after treatment
Procedure, shortened: as §1

Cc1ccc(OCC(=O)O)cc1-n1nnc2cc(F)c(-n3c(=O)cc(C(F)(F)F)n(C)c3=O)cc21 [Example 37]
3.0: AMBEL herbicidal rating (AMBEL Ragweed, Common [6]; rate 0.125 kg/ha) | Postemergence herbicidal rating ECHCG (ECHOG Barnyardgrass [14]; 0.062 kg/ha) | Postemergence herbicidal rating IPOHE ([18]; 0.008 kg/ha) | Postemergence herbicidal rating ABUTH (ABUTH Velvetleaf [24]; 0.016 kg/ha)
7.0: Postemergence herbicidal rating TRZAWR ([3]; 0.062 kg/ha) | Postemergence herbicidal rating ZEAMX (ZEAMX Corn, Field [7]; 0.008 kg/ha) | Postemergence herbicidal rating SETVI (SETVI Foxtail, Green [11]; 0.032 kg/ha) | Postemergence herbicidal rating GLXMAW (GLXMAW Soybean, Williams [21]; 0.062 kg/ha)
4.0: Postemergence herbicidal rating AMBEL (AMBEL Ragweed, Common [1]; 0.016 kg/ha) | Postemergence herbicidal rating CHEAL ([2]; 0.032 kg/ha) | Postemergence herbicidal rating CHEAL ([2]; 0.062 kg/ha) | Postemergence herbicidal rating GLXMAW (GLXMAW Soybean, Williams [21]; 0.016 kg/ha)
8.0: Postemergence herbicidal rating ZEAMX (ZEAMX Corn, Field [7]; 0.062 kg/ha) | SETVI herbicidal rating (SETVI Foxtail, Green [17]; rate 0.125 kg/ha)
2.0: Postemergence herbicidal rating ECHCG (ECHOG Barnyardgrass [14]; 0.032 kg/ha) | Postemergence herbicidal rating GALAP (GALAP Galium [22]; 0.062 kg/ha)
6.5: Postemergence herbicidal rating GLXMAW (GLXMAW Soybean, Williams [21]; 0.032 kg/ha)
0.0: Postemergence herbicidal rating AMBEL (AMBEL Ragweed, Common [1]; 0.008 kg/ha) | Postemergence herbicidal rating CHEAL ([2]; 0.008 kg/ha) | Postemergence herbicidal rating CHEAL ([2]; 0.016 kg/ha) | ABUTH herbicidal rating (ABUTH Velvetleaf [4]; rate 0.016 kg/ha) | ABUTH herbicidal rating (ABUTH Velvetleaf [4]; rate 0.032 kg/ha) | GALAP herbicidal rating (GALAP Galium [5]; rate 0.016 kg/ha) | GALAP herbicidal rating (GALAP Galium [5]; rate 0.032 kg/ha) | GALAP herbicidal rating (GALAP Galium [5]; rate 0.062 kg/ha) | GALAP herbicidal rating (GALAP Galium [5]; rate 0.125 kg/ha) | AMBEL herbicidal rating (AMBEL Ragweed, Common [6]; rate 0.016 kg/ha) | AMBEL herbicidal rating (AMBEL Ragweed, Common [6]; rate 0.032 kg/ha) | AMBEL herbicidal rating (AMBEL Ragweed, Common [6]; rate 0.062 kg/ha) | GLXMAW herbicidal rating (GLXMAW Soybean, Williams [9]; rate 0.016 kg/ha) | GLXMAW herbicidal rating (GLXMAW Soybean, Williams [9]; rate 0.032 kg/ha) | GLXMAW herbicidal rating (GLXMAW Soybean, Williams [9]; rate 0.062 kg/ha) | GLXMAW herbicidal rating (GLXMAW Soybean, Williams [9]; rate 0.125 kg/ha) | CHEAL herbicidal rating ([10]; rate 0.062 kg/ha) | Postemergence herbicidal rating SETVI (SETVI Foxtail, Green [11]; 0.008 kg/ha) | Postemergence herbicidal rating SETVI (SETVI Foxtail, Green [11]; 0.016 kg/ha) | ZEAMX herbicidal rating (ZEAMX Corn, Field [12]; rate 0.016 kg/ha) | ZEAMX herbicidal rating (ZEAMX Corn, Field [12]; rate 0.032 kg/ha) | ZEAMX herbicidal rating (ZEAMX Corn, Field [12]; rate 0.062 kg/ha) | ZEAMX herbicidal rating (ZEAMX Corn, Field [12]; rate 0.125 kg/ha) | CASOB herbicidal rating (CASOB Sicklepod [13]; rate 0.016 kg/ha) | CASOB herbicidal rating (CASOB Sicklepod [13]; rate 0.032 kg/ha) | CASOB herbicidal rating (CASOB Sicklepod [13]; rate 0.062 kg/ha) | CASOB herbicidal rating (CASOB Sicklepod [13]; rate 0.125 kg/ha) | Postemergence herbicidal rating ECHCG (ECHOG Barnyardgrass [14]; 0.008 kg/ha) | Postemergence herbicidal rating ECHCG (ECHOG Barnyardgrass [14]; 0.016 kg/ha) | Postemergence herbicidal rating CASOB (CASOB Sicklepod [15]; 0.008 kg/ha) | Postemergence herbicidal rating CASOB (CASOB Sicklepod [15]; 0.016 kg/ha) | Postemergence herbicidal rating CASOB (CASOB Sicklepod [15]; 0.032 kg/ha) | Postemergence herbicidal rating CASOB (CASOB Sicklepod [15]; 0.062 kg/ha) | ORYSAT herbicidal rating (ORYSAT Rice, Tebonnet [16]; rate 0.016 kg/ha) | ORYSAT herbicidal rating (ORYSAT Rice, Tebonnet [16]; rate 0.032 kg/ha) | ORYSAT herbicidal rating (ORYSAT Rice, Tebonnet [16]; rate 0.062 kg/ha) | ORYSAT herbicidal rating (ORYSAT Rice, Tebonnet [16]; rate 0.125 kg/ha) | SETVI herbicidal rating (SETVI Foxtail, Green [17]; rate 0.016 kg/ha) | SETVI herbicidal rating (SETVI Foxtail, Green [17]; rate 0.032 kg/ha) | SETVI herbicidal rating (SETVI Foxtail, Green [17]; rate 0.062 kg/ha) | IPOHE herbicidal rating ([19]; rate 0.016 kg/ha) | IPOHE herbicidal rating ([19]; rate 0.032 kg/ha) | IPOHE herbicidal rating ([19]; rate 0.062 kg/ha) | ECHCG herbicidal rating (ECHOG Barnyardgrass [20]; rate 0.016 kg/ha) | ECHCG herbicidal rating (ECHOG Barnyardgrass [20]; rate 0.032 kg/ha) | ECHCG herbicidal rating (ECHOG Barnyardgrass [20]; rate 0.062 kg/ha) | ECHCG herbicidal rating (ECHOG Barnyardgrass [20]; rate 0.125 kg/ha) | Postemergence herbicidal rating GALAP (GALAP Galium [22]; 0.008 kg/ha) | Postemergence herbicidal rating GALAP (GALAP Galium [22]; 0.016 kg/ha) | Postemergence herbicidal rating GALAP (GALAP Galium [22]; 0.032 kg/ha) | TRZAWR herbicidal rating ([23]; rate 0.016 kg/ha) | TRZAWR herbicidal rating ([23]; rate 0.032 kg/ha) | TRZAWR herbicidal rating ([23]; rate 0.062 kg/ha) | TRZAWR herbicidal rating ([23]; rate 0.125 kg/ha) | Postemergence herbicidal rating ABUTH (ABUTH Velvetleaf [24]; 0.008 kg/ha)
5.5: Postemergence herbicidal rating TRZAWR ([3]; 0.016 kg/ha) | Postemergence herbicidal rating TRZAWR ([3]; 0.032 kg/ha)
7.5: Postemergence herbicidal rating ZEAMX (ZEAMX Corn, Field [7]; 0.016 kg/ha) | Postemergence herbicidal rating ZEAMX (ZEAMX Corn, Field [7]; 0.032 kg/ha) | Postemergence herbicidal rating ORYSAT (ORYSAT Rice, Tebonnet [8]; 0.062 kg/ha)
5.0: IPOHE herbicidal rating ([19]; rate 0.125 kg/ha) | Postemergence herbicidal rating ABUTH (ABUTH Velvetleaf [24]; 0.032 kg/ha)
3.5: Postemergence herbicidal rating TRZAWR ([3]; 0.008 kg/ha) | Postemergence herbicidal rating ORYSAT (ORYSAT Rice, Tebonnet [8]; 0.032 kg/ha) | Postemergence herbicidal rating GLXMAW (GLXMAW Soybean, Williams [21]; 0.008 kg/ha)
0.5: Postemergence herbicidal rating ORYSAT (ORYSAT Rice, Tebonnet [8]; 0.008 kg/ha)
1.0: Postemergence herbicidal rating ORYSAT (ORYSAT Rice, Tebonnet [8]; 0.016 kg/ha)
9.0: Postemergence herbicidal rating AMBEL (AMBEL Ragweed, Common [1]; 0.032 kg/ha) | Postemergence herbicidal rating AMBEL (AMBEL Ragweed, Common [1]; 0.062 kg/ha) | ABUTH herbicidal rating (ABUTH Velvetleaf [4]; rate 0.062 kg/ha) | ABUTH herbicidal rating (ABUTH Velvetleaf [4]; rate 0.125 kg/ha) | CHEAL herbicidal rating ([10]; rate 0.125 kg/ha) | Postemergence herbicidal rating SETVI (SETVI Foxtail, Green [11]; 0.062 kg/ha) | Postemergence herbicidal rating IPOHE ([18]; 0.016 kg/ha) | Postemergence herbicidal rating IPOHE ([18]; 0.032 kg/ha) | Postemergence herbicidal rating IPOHE ([18]; 0.062 kg/ha) | Postemergence herbicidal rating ABUTH (ABUTH Velvetleaf [24]; 0.062 kg/ha)
